Test [1] has as its system Rattus norvegicus. The experiment in a line: Overnight food intake was measured in rat model in which compound was dosed 2 hr prior to onset of the dark cycle; - =no significant reduction in food intake. Format: functional, organism-based.
Test [2] concerns Rattus norvegicus. Description: Concentration of compound in brain was determined following a dose of 40 mg/kg administered orally at 1 hr. The test is classed as functional, organism-based. Also noted: dose 40 mg/kg.
The subject of test [3] is Rattus norvegicus. Description: Concentration of compound in plasma was determined following a dose of 40 mg/kg administered orally at 4 hr. Format: functional, organism-based. On the set-up: dose 40 mg/kg.
Test [4] concerns Rattus norvegicus. Description: Concentration of compound in brain was determined following a dose of 40 mg/kg administered orally at 4 hr. The test is classed as functional, organism-based. Also noted: dose 40 mg/kg.
The species named for test [5] is Rattus norvegicus. The experiment in a line: Food intake was measured for a 3-h period in 24-h food deprived rats;+/- =significant reduction in food intake/- =no significant reduction in food intake. The test is classed as functional, organism-based.
Test [6] has as its system Rattus norvegicus. The experiment in a line: Concentration of compound in plasma was determined following a dose of 40 mg/kg administered orally at 2 hr. Format: functional, organism-based. Also noted: dose 40 mg/kg.
Test [7] concerns Rattus norvegicus. The experiment in a line: Concentration of compound in brain was determined following a dose of 40 mg/kg administered orally at 2 hr. Format: functional, organism-based. Also noted: dose 40 mg/kg.
The species named for test [8] is Rattus norvegicus. Description: Ratio of the concentrations of compound in Brain to that of Plasma was determined at 4 hr. Format: functional.
For test [9], the system named is Rattus norvegicus. Description: Concentration of compound in Cerebrospinal fluid(CSF) was determined following a dose of 40 mg/kg administered orally at 8 hr. Format: functional, organism-based. Also noted: dose 40 mg/kg.
Test [10] deals with Rattus norvegicus. Description: Concentration of compound in brain was determined following a dose of 40 mg/kg administered orally at 8 hr. Format: functional, organism-based. On the set-up: dose 40 mg/kg.
The species named for test [11] is Rattus norvegicus. The experiment in a line: Ratio of the concentrations of compound in brain to that of Plasma was determined at 2 hr. Format: functional.
The species named for test [12] is Rattus norvegicus. The experiment in a line: Ratio of the concentrations of compound in Brain to that of Plasma was determined at 8 hr. The test is classed as functional.
The test system of test [13] is Rattus norvegicus. Description: Concentration of compound in plasma was determined following a dose of 40 mg/kg administered orally at 8 hr. Format: functional, organism-based. On the set-up: dose 40 mg/kg.
Test [14] relates to Rattus norvegicus. Description: Concentration of compound in plasma was determined following a dose of 40 mg/kg administered orally at 1 hr. The test is classed as functional, organism-based. On the set-up: dose 40 mg/kg.
Test [15] is filed under the species Rattus norvegicus. Description: Ratio of the concentrations of compound in Brain to that of Plasma was determined at 1 hr. The test is classed as functional.
Test [16] has as its target T1, Neuropeptide Y receptor type 5 (Homo sapiens, UniProt Q15761).
T1 sequence (Q15761 whole entry): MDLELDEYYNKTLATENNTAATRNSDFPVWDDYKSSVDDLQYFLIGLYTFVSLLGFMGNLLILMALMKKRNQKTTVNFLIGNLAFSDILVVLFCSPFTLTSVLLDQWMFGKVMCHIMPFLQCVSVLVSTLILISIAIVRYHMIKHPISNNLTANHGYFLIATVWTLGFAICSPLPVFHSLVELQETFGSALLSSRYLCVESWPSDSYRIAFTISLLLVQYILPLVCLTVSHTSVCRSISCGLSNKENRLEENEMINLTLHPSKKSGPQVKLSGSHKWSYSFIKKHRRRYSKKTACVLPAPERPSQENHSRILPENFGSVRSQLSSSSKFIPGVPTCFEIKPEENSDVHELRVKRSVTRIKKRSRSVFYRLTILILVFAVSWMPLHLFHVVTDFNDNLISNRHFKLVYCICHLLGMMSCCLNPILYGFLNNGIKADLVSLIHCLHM
The experiment in a line: Binding affinity towards human neuropeptide Y receptor type 5 using [125I]-PYY as radioligand in baculovirus-infected Sf9 cells.

A further test has as its system HMCB cell line. Description: Compound was tested for [Ca2+] mobilization in NPY5 transfected human Bowes melanoma (HMCB) cell line. Format: functional, cell-based.
Test [17] relates to Rattus norvegicus. The experiment in a line: Overnight food intake was measured in rat model in which compound was dosed 2 hr prior to onset of the dark cycle;- =no significant reduction in food intake. Format: functional, organism-based.
Test [18] deals with Rattus norvegicus. The experiment in a line: Locomotor activity in male Sprague-Dawley rats at 40 mg/kg oral dose. Also noted: dose 40 mg/kg. The test is classed as functional, organism-based.
Test [19] is filed under the species Rattus norvegicus. The experiment in a line: Food intake was measured for a 3-h period in 24-h food deprived rats;+/+ =significant reduction in food intake. The test is classed as functional, organism-based.
For test [20], the species on record is Rattus norvegicus. Description: Food intake was measured for a 3-h period in 24-h food deprived rats;+/- =significant reduction in food intake / - =no significant reduction in food intake. Format: functional, organism-based.
The test system of test [21] is Rattus norvegicus. The experiment in a line: Overnight food intake was measured in rat model in which compound was dosed 2 hr prior to onset of the dark cycle;+/- =significant reduction in food intake. The test is classed as functional, organism-based.

The source made the active and inactive calls. The rule behind the calls is not given here.

By Ki is commonly meant a measure of affinity in units of concentration, obtained from inhibition or displacement. A low value points to tighter binding. `Clc1cccc(-c2c[nH]c(-c3cccnc3)n2)c1`: the result with Rattus norvegicus [1] and in the test listed under Rattus norvegicus [5] was inactive. Also, the Concentration with Rattus norvegicus [2] is 45 µM; in the test with Rattus norvegicus [3] it was 6.2 µM; in the test with Rattus norvegicus [4], 29 µM; with Rattus norvegicus [6], 11 µM; with Rattus norvegicus [7], 56 µM; in the test with Rattus norvegicus [9], 0.011 µM. Moreover, the Concentration is 4 µM in the test with Rattus norvegicus [10], 1.3 µM in the test with Rattus norvegicus [13] and 10 µM with Rattus norvegicus [14]. Further, the Ratio in the test filed under Rattus norvegicus [8] is 4.8; in the test listed under Rattus norvegicus [11] it was 5.1; in the test listed under Rattus norvegicus [12] it was 5.3; in the test listed under Rattus norvegicus [15], 4.4. In [16], the Ki is 8 nM.
In test [16], `c1ccc(-c2c[nH]c(-c3ccncc3)n2)cc1` returned a Ki of 1530 nM.
Usually EC50 stands for the midpoint of the concentration-response curve. In turn, `Cc1[nH]c(-c2cccnc2)nc1-c1cccc(Cl)c1` yielded an EC50 in the test with HMCB cell line of 40 nM. Further, the Ki in test [16] came to 19 nM.
With `Clc1ccc(-c2c[nH]c(-c3cccnc3)n2)cc1`, the result in the test with Rattus norvegicus [17] was inactive. The Locomotor activity result with Rattus norvegicus [18] was “Active”. The result in the test filed under Rattus norvegicus [19] was Active. Besides, affinity in test [16] was put at a Ki of 16 nM.
In turn, `Cc1cccc(-c2c[nH]c(-c3cccnc3)n2)c1` returned an EC50 in the test on HMCB cell line of 24 nM. Besides, the Ki in [16] amounted to 14 nM.
In the test with HMCB cell line, `COc1ccc(-c2c[nH]c(-c3cccnc3)n2)cc1OC` returned an EC50 of 723 nM. The compound also returned a Ki in test [16] of 148 nM.
Consider `FC(F)(F)c1ccc(-c2c[nH]c(-c3cccnc3)n2)cc1`, for which, in test [16], the Ki turned out to be 37 nM.
Still for that read-out and setting: the value for `Clc1ccc(-c2c[nH]c(-c3cc4ccccc4cn3)n2)cc1Cl` was 4770 nM; that for `Clc1ccc(-c2c[nH]c(-c3cnccn3)n2)cc1Cl` was 40 nM.
With `FC(F)(F)c1ccccc1-c1c[nH]c(-c2cccnc2)n1`, in the test with HMCB cell line, the EC50 came out at 39 nM. The compound also returned an inhibitory constant (Ki) in test [16] of 27 nM.
For the compound `Clc1ccc(-c2c[nH]c(-c3cccnc3)n2)cc1Cl`, in the test filed under Rattus norvegicus [20], the outcome was inactive. Further, the Ki in test [16] turned out to be 4 nM.
On to `Clc1ccc(-c2c[nH]c(-c3ccncc3)n2)cc1Cl`, for which the Ki in test [16] turned out to be 3.5 nM.
Still for that read-out and setting: the result for `c1ccc(-c2c[nH]c(-c3cccnc3)n2)cc1` reads 525 nM.
In turn, `FC(F)(F)Oc1cccc(-c2c[nH]c(-c3cccnc3)n2)c1` yielded an EC50 in the test on HMCB cell line of 13 nM. For the same compound, the Ki in test [16] came out at 4.9 nM.
The corresponding values for `Cc1ccccc1-c1c[nH]c(-c2cccnc2)n1` are 52 nM and 40 nM.
`Clc1ccc(-c2c[nH]c(-c3cnc4ccccc4c3)n2)cc1Cl` displayed a Ki in test [16] of over 10000 nM.
For `Clc1ccccc1-c1c[nH]c(-c2cccnc2)n1`, a half-maximal effect with HMCB cell line (EC50) was put at 15 nM. In addition, in test [16], the Ki worked out at 21 nM.
Consider `c1ccc(-c2c[nH]c(-c3ccccn3)n2)cc1`, for which the Ki in [16] worked out at 1450 nM. That is a single-digit micromolar value.
Consider `FC(F)(F)c1cccc(-c2c[nH]c(-c3cccnc3)n2)c1`, for which the EC50 with HMCB cell line is 3.2 nM. In addition, the result in the test listed under Rattus norvegicus [5] was inactive. Also, in the test with Rattus norvegicus [21], the result was Active. The Locomotor activity entry with Rattus norvegicus [18] was “Active”. Moreover, the affinity in test [16] corresponds to a Ki of 1.6 nM.
In the case of `Clc1ccc(-c2c[nH]c(-c3nccc4ccccc34)n2)cc1Cl`, the EC50 with HMCB cell line is 17 nM. The compound further showed a Ki in [16] of 116 nM.
In the case of `Fc1ccc(-c2c[nH]c(-c3cccnc3)n2)cc1F`, the affinity in test [16] corresponds to a Ki of 34 nM.
`Cc1[nH]c(-c2cccnc2)nc1-c1ccc(Cl)cc1`: affinity in [16] was put at a Ki of 69 nM.
With `N#Cc1ccc(-c2c[nH]c(-c3cccnc3)n2)cc1`, affinity in test [16] was put at a Ki of 3000 nM.
Same read-out and setting: the value for `FC(F)(F)Oc1ccc(-c2c[nH]c(-c3cccnc3)n2)cc1` was 210 nM.
`Clc1ccc(-c2c[nH]c(-c3ccccn3)n2)cc1Cl` returned a Ki in test [16] of 30 nM.
On the same count and under the same terms, the result for `c1ccc(-c2c[nH]c(-c3ccccc3)n2)cc1` reads 34 nM.
In turn, `c1cncc(-c2nc(C3CCCCC3)c[nH]2)c1` gave an EC50 in the test on HMCB cell line of 36 nM. Further, the Ki in test [16] is 231 nM.
The compound `COc1cccc(-c2c[nH]c(-c3cccnc3)n2)c1` returned an EC50 in the test with HMCB cell line of 45 nM. Further, the Ki in [16] came out at 56 nM.

The values above are taken from ChEMBL document CHEMBL1136300, “Structure-activity relationship studies on 2-heteroaryl-4-arylimidazoles NPY5 receptor antagonists” (Bioorg Med Chem Lett, 2003).
